Measurements from patent publication US11801226B2, “Pharmaceutical formulation of odevixibat” (Albireo AB, priority 2018, dated 2023).
In brackets after ≈: the same amount, converted by molar mass.

Experiments:
Type in all cases: physicochemical
[1] = Water content / hygroscopicity of crystal modification 1 versus relative humidity
Text: Crystal modification 1 of odevixibat cannot only be obtained from a mixture of water and ethanol, as described above, but also from a slurry of odevixibat in a mixture of water and an organic solvent selected from the group consisting of methanol, 2-propanol, acetone, acetonitrile, 1,4-dioxane, DMF and DMSO. Upon drying of the different mixed solvates obtained under these conditions (crystal modification 2), the same crystalline hydrate of odevixibat is obtained, namely crystal modification 1. Crystal modification 1 contains void volumes that are capable of containing up to about 2 moles of water associated with the crystal per mole of odevixibat, depending on the relative humidity. This form is therefore formally a channel hydrate. At about 30% relative humidity, however, crystal modification 1 contains a substantially stoichiometric amount of about 1.5 moles of water per mole of organic compound and is thus a sesquihydrate. The substantially stoichiometric amount of water is considered advantageous, as the water content of the crystals remains substantially constant even with humidity changes within the normal relative humidity range of about 30% to about 70% RH.
Whereas crystal modification 1 is a sesquihydrate containing about 3.5% (w/w) water at about 30% relative humidity (based on the total crystal weight), it has been observed that the crystal can take up an additional 1.5% (w/w) water when the humidity is increased up to 95% RH. The sorption and desorption of this additional water is fully reversible. The additional water may be adsorbed on the surface or may further fill the channels of the structure. In some embodiments, the term “overhydrated” refers to crystal modification 1 containing from about 1.5 to about 4 moles of water per mole of odevixibat, such as from about 1.5 to about 3.5, or such as from about 1.5 to 3, or such as from about 1.5 to about 2.5, or such as from about 1.5 to about 2 moles of water per mole of odevixibat. In some embodiments, the term “overhydrated” refers to crystal modification 1 containing from about 2 to about 4 moles of water per mole of odevixibat, such as from about 2 to about 3.5, or such as from about 2 to about 3, or such as from about 2 to 2.5 moles of water per mole of odevixibat.

[2] = Particle size distribution of crystalline odevixibat drug substance; conditions: typical value, crystalline material
Text: Crystalline odevixibat was used. Typical values for the particle size distribution of the crystalline material were d10=0.9 μm, d50=4 μm and d90=20 μm, wherein d10, d50 and d90 are defined as the diameters where 10%, 50% and 90%, respectively, of the particle population lies below these values. […]

[3] = Solubility of odevixibat in water; conditions: pH 7, 37° C.
Text: It is desirable that the use of organic solvents in the preparation of the formulation is avoided. In some embodiments, water is used as the solvent for the preparation of the formulation. […] Because of this low solubility in water, aqueous suspensions of odevixibat can contain larger agglomerates of odevixibat, which may lead to an uneven distribution of the active pharmaceutical ingredient on the cores, i.e. the cores may contain different amounts of odevixibat, which in turn impacts dose uniformity. Accordingly, in some embodiments, the aqueous suspension of odevixibat is homogeneous. In some embodiments, a homogeneous aqueous suspension of odevixibat is sprayed onto the cores.

SMILES	water content ([1]; about 30% relative humidity)	water content of crystal ([1]; about 30% relative humidity, based on total crystal weight)	hygroscopicity ([1]; between about 30 and about 70% RH)	additional water taken up ([1]; humidity increased up to 95% RH, fully reversible)	particle size distribution d10 [2] [μm]	particle size distribution d50 [2] [μm]	particle size distribution d90 [2] [μm]	solubility [3] [µg/mL]
CCCCC1(CCCC)CN(c2ccccc2)c2cc(SC)c(OCC(=O)N[C@@H](C(=O)N[C@@H](CC)C(=O)O)c3ccc(O)cc3)cc2S(=O)(=O)N1 [crystal modification 1]	about 1.5 moles of water per mole of organic compound	about 3.5 % (w/w)	relatively low hygroscopicity	1.5 % (w/w)				
CCCCC1(CCCC)CN(c2ccccc2)c2cc(SC)c(OCC(=O)N[C@@H](C(=O)N[C@@H](CC)C(=O)O)c3ccc(O)cc3)cc2S(=O)(=O)N1 [odevixibat, 1,1-dioxo-3,3-dibutyl-5-phenyl-7-methylthio-8-(N—{(R)-α-[N—((S)-1-carboxypropyl)carbamoyl]-4-hydroxybenzyl}carbamoylmethoxy)-2,3,4,5-tetrahydro-1,2,5-benzothiadiazepine]					0.9	4	20	~30 (≈ 40.5 µM)
